# Several values for one entry are separate records, joined by “and”; a condition that tells them apart may be missing. Identical values can stand only once. Inconclusive results and toxic doses are left out.
# Tested on: P388 leukemia ip, CD2F1 mice, survival T/C
# Assay: NCI In Vivo Anticancer Drug Screen. Data for tumor model P388 Leukemia (intraperitoneal) in CD2F1 (CDF1) mice
# Details: endpoint: median survival time, higher = longer survival
# Procedure, shortened: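 Mice carrying the transplanted tumor received test compound or vehicle. Survival was recorded in each group, and the value is the treated-group measurement divided by that of the vehicle-treated control group.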
# [1] = dose: 100.0 mg/kg/injection, schedule: Q04DX003 (ip), vehicle: saline with Tween-80
# [2] = dose: 50.0 mg/kg/injection, schedule: Q01DX009 (ip), vehicle: Klucel (hydroxypropylcellulose) (HPC)
# [3] = dose: 100.0 mg/kg/injection, schedule: Q01DX009 (ip), vehicle: Klucel (hydroxypropylcellulose) (HPC)
# [4] = dose: 60.0 mg/kg/injection, schedule: Q01DX005 (ip), vehicle: saline with Tween-80
# [5] = dose: 120.0 mg/kg/injection, schedule: Q01DX005 (ip), vehicle: saline with Tween-80
# [6] = dose: 60.0 mg/kg/injection, schedule: Q01DX005 (ip), vehicle: Klucel (hydroxypropylcellulose) (HPC)
# [7] = dose: 120.0 mg/kg/injection, schedule: Q01DX005 (ip), vehicle: Klucel (hydroxypropylcellulose) (HPC)
# [8] = dose: 50.0 mg/kg/injection, schedule: Q01DX005 (ip), vehicle: saline with Tween-80
# [9] = dose: 100.0 mg/kg/injection, schedule: Q01DX005 (ip), vehicle: saline with Tween-80
# [10] = dose: 100.0 mg/kg/injection, schedule: Q04DX003 (ip), vehicle: saline
# [11] = dose: 200.0 mg/kg/injection, schedule: Q04DX003 (ip), vehicle: saline
# [12] = dose: 400.0 mg/kg/injection, schedule: Q04DX003 (ip), vehicle: saline
# [13] = dose: 50.0 mg/kg/injection, schedule: Q01DX009 (ip), vehicle: saline with Tween-80
# [14] = dose: 100.0 mg/kg/injection, schedule: Q01DX009 (ip), vehicle: saline with Tween-80
# [15] = dose: 240.0 mg/kg/injection, schedule: Q01DX005 (ip), vehicle: saline with Tween-80
# [16] = dose: 100.0 mg/kg/injection, schedule: Q04DX002 (ip), vehicle: saline with Tween-80
structure (smiles),measurement,setting,value
C=C(C)C12OC1[C@@]1(C)C(=CC2=O)CCC(O)[C@@H]1C (stereo not given in full),T/C,"dose: 20.0 mg/kg/injection, schedule: Q01DX005 (ip), vehicle: saline",101 % of control
same,T/C,"dose: 40.0 mg/kg/injection, schedule: Q01DX005 (ip), vehicle: saline",104 % of control
same,T/C,"dose: 80.0 mg/kg/injection, schedule: Q01DX005 (ip), vehicle: saline",100 % of control
O=C(C(=S)c1ccccc1)N(Cc1ccccc1)Cc1ccccc1,T/C,[1],108 % of control
same,T/C,"dose: 200.0 mg/kg/injection, schedule: Q04DX003 (ip), vehicle: saline with Tween-80",103 % of control
same,T/C,"dose: 400.0 mg/kg/injection, schedule: Q04DX003 (ip), vehicle: saline with Tween-80",103 % of control
COc1ccc2c(N/N=C/c3ccc4c(c3)OCO4)cc(C)nc2c1,T/C,"dose: 1.5 mg/kg/injection, schedule: Q01DX005 (ip), vehicle: Klucel (hydroxypropylcellulose) (HPC)",95 % of control
same,T/C,"dose: 3.0 mg/kg/injection, schedule: Q01DX005 (ip), vehicle: Klucel (hydroxypropylcellulose) (HPC)",93 % of control
same,T/C,"dose: 6.0 mg/kg/injection, schedule: Q01DX005 (ip), vehicle: Klucel (hydroxypropylcellulose) (HPC)",95 % of control
same,T/C,"dose: 6.25 mg/kg/injection, schedule: Q01DX005 (ip), vehicle: Klucel (hydroxypropylcellulose) (HPC)",88 % of control
same,T/C,"dose: 12.5 mg/kg/injection, schedule: Q01DX005 (ip), vehicle: Klucel (hydroxypropylcellulose) (HPC)",107 % of control
same,T/C,"dose: 25.0 mg/kg/injection, schedule: Q01DX005 (ip), vehicle: Klucel (hydroxypropylcellulose) (HPC)",88 % of control
c1ccc(-c2ccc(-c3ccccc3)cc2)cc1,T/C,"dose: 12.5 mg/kg/injection, schedule: Q01DX009 (ip), vehicle: Klucel (hydroxypropylcellulose) (HPC)",109 % of control
same,T/C,"dose: 25.0 mg/kg/injection, schedule: Q01DX009 (ip), vehicle: Klucel (hydroxypropylcellulose) (HPC)",97 % of control
same,T/C,[2],98 % of control
same,T/C,[3],98 % of control
CC1=C(Cl)CC(/C(C)=C/Cl)OC1(O)CBr (stereo not given),T/C,"dose: 0.1 mg/kg/injection, schedule: Q01DX009 (ip), vehicle: Klucel (hydroxypropylcellulose) (HPC)",100 % of control
same,T/C,"dose: 0.2 mg/kg/injection, schedule: Q01DX009 (ip), vehicle: Klucel (hydroxypropylcellulose) (HPC)",100 % of control
same,T/C,"dose: 0.38 mg/kg/injection, schedule: Q01DX009 (ip), vehicle: Klucel (hydroxypropylcellulose) (HPC)",95 % of control
same,T/C,"dose: 0.4 mg/kg/injection, schedule: Q01DX009 (ip), vehicle: Klucel (hydroxypropylcellulose) (HPC)",97 % of control
COc1ccc(C(c2c(O)c3ccccc3oc2=O)N2CCOCC2)c(OC)c1 (stereo not given),T/C,[4],99 % of control
same,T/C,[5],107 % of control
CC1CCCCN1CC(C)(C)C (stereo not given),T/C,[6],100 % of control
same,T/C,[7],93 % of control
O=S(=O)(F)c1ncc2[nH]cnc2n1,T/C,"dose: 12.5 mg/kg/injection, schedule: Q01DX005 (ip), vehicle: saline with Tween-80",109 % of control
same,T/C,"dose: 25.0 mg/kg/injection, schedule: Q01DX005 (ip), vehicle: saline with Tween-80",114 % of control
same,T/C,[8],106 % of control and 111 % of control
same,T/C,[9],108 % of control
C/C=c1/[nH]c(=O)/c(=C\c2ccc(Cl)cc2)[nH]c1=O,T/C,[2],91 % of control
same,T/C,[3],93 % of control
same,T/C,"dose: 200.0 mg/kg/injection, schedule: Q01DX009 (ip), vehicle: Klucel (hydroxypropylcellulose) (HPC)",94 % of control
COc1ccccc1C1NC(c2ccccc2OC)C2CCCC1C2O (stereo not given),T/C,[10],98 % of control
same,T/C,[11],97 % of control
same,T/C,[12],95 % of control
CCCc1c(Cl)nc(Cl)nc1Cl,T/C,"dose: 25.0 mg/kg/injection, schedule: Q01DX009 (ip), vehicle: saline with Tween-80",104 % of control
same,T/C,"dose: 25.0 mg/kg/injection, schedule: Q04DX003 (ip), vehicle: saline with Tween-80",113 % of control
same,T/C,[13],118 % of control
same,T/C,"dose: 50.0 mg/kg/injection, schedule: Q04DX003 (ip), vehicle: saline with Tween-80",121 % of control
same,T/C,"dose: 66.0 mg/kg/injection, schedule: Q01DX009 (ip), vehicle: saline with Tween-80",116 % of control
same,T/C,[14],100 % of control
same,T/C,[1],113 % of control
[S]=[W]=[S],T/C,[13],98 % of control
same,T/C,[14],102 % of control
same,T/C,"dose: 200.0 mg/kg/injection, schedule: Q01DX009 (ip), vehicle: saline with Tween-80",96 % of control
c1ccc(C(NC2=NCCCCCC2)c2ccco2)cc1 (stereo not given),T/C,"dose: 7.5 mg/kg/injection, schedule: Q01DX005 (ip), vehicle: saline with Tween-80",99 % of control
same,T/C,"dose: 15.0 mg/kg/injection, schedule: Q01DX005 (ip), vehicle: saline with Tween-80",93 % of control
same,T/C,"dose: 30.0 mg/kg/injection, schedule: Q01DX005 (ip), vehicle: saline with Tween-80",101 % of control
COC(=O)C1(CC(=O)c2cc(Cl)ccc2Cl)NC(=S)NC(=O)C1C#N (stereo not given),T/C,[4],94 % of control
same,T/C,[5],92 % of control
same,T/C,[15],95 % of control
CC(=Nc1c(C)noc1/C=C/c1ccccc1)NO,T/C,"dose: 12.5 mg/kg/injection, schedule: Q04DX002 (ip), vehicle: saline with Tween-80",104 % of control
same,T/C,"dose: 25.0 mg/kg/injection, schedule: Q04DX002 (ip), vehicle: saline with Tween-80",97 % of control
same,T/C,"dose: 50.0 mg/kg/injection, schedule: Q04DX002 (ip), vehicle: saline with Tween-80",95 % of control
same,T/C,[16],87 % of control
Cc1c(O)ccc2c1OCC(c1ccc(Cl)cc1)C2 (stereo not given),T/C,[4],104 % of control
same,T/C,[5],91 % of control
same,T/C,[15],92 % of control
COc1cccc2c1C(=O)c1c(O)c3c(c(O)c1C2=O)CC(O)(/C=N/NS(=O)(=O)c1ccc(C)cc1)CC3OC1CC(N)C(O)C(C)O1 (stereo not given),T/C,"dose: 6.25 mg/kg/injection, schedule: Q01DX009 (ip), vehicle: other",153 % of control
same,T/C,"dose: 12.5 mg/kg/injection, schedule: Q01DX009 (ip), vehicle: other",178 % of control
same,T/C,"dose: 25.0 mg/kg/injection, schedule: Q01DX009 (ip), vehicle: other",93 % of control
N#CC(C#N)/C=C/[Se]c1ccccc1,T/C,[10],104 % of control
same,T/C,[11],98 % of control
same,T/C,[12],109 % of control
O=C/C=C/C1C=Cc2c3c(c(O)c(O)c2C(=O)C1O)OCC=C3 (stereo not given),T/C,"dose: 6.0 mg/kg/injection, schedule: Q01DX009 (ip), vehicle: Klucel (hydroxypropylcellulose) (HPC)",94 % of control
same,T/C,"dose: 12.0 mg/kg/injection, schedule: Q01DX009 (ip), vehicle: Klucel (hydroxypropylcellulose) (HPC)",100 % of control
same,T/C,"dose: 24.0 mg/kg/injection, schedule: Q01DX009 (ip), vehicle: Klucel (hydroxypropylcellulose) (HPC)",97 % of control
same,T/C,"dose: 48.0 mg/kg/injection, schedule: Q01DX009 (ip), vehicle: Klucel (hydroxypropylcellulose) (HPC)",104 % of control
Cc1ccc(SCc2cn(C3OC(CO)C(O)C3O)c(=O)[nH]c2=O)cc1 (stereo not given),T/C,[6],95 % of control and 102 % of control
same,T/C,[7],95 % of control and 101 % of control
same,T/C,"dose: 240.0 mg/kg/injection, schedule: Q01DX005 (ip), vehicle: Klucel (hydroxypropylcellulose) (HPC)",92 % of control and 95 % of control
CSC(=CC(=O)c1ccco1)SC,T/C,[4],98 % of control
same,T/C,[5],96 % of control
CC(S)C(N)C(=O)O (stereo not given),T/C,"dose: 50.0 mg/kg/injection, schedule: Q01DX009 (ip), vehicle: saline",100 % of control
same,T/C,"dose: 100.0 mg/kg/injection, schedule: Q01DX009 (ip), vehicle: saline",95 % of control
same,T/C,[16],105 % of control and 94 % of control
same,T/C,"dose: 200.0 mg/kg/injection, schedule: Q01DX009 (ip), vehicle: saline",97 % of control
same,T/C,"dose: 200.0 mg/kg/injection, schedule: Q04DX002 (ip), vehicle: saline with Tween-80",114 % of control and 90 % of control
same,T/C,"dose: 400.0 mg/kg/injection, schedule: Q04DX002 (ip), vehicle: saline with Tween-80",114 % of control and 89 % of control
COC(=O)c1ccc(C(N)=O)nc1,T/C,"dose: 25.0 mg/kg/injection, schedule: Q04DX002 (ip), vehicle: Klucel (hydroxypropylcellulose) (HPC)",97 % of control
same,T/C,"dose: 50.0 mg/kg/injection, schedule: Q04DX002 (ip), vehicle: Klucel (hydroxypropylcellulose) (HPC)",101 % of control
same,T/C,"dose: 100.0 mg/kg/injection, schedule: Q04DX002 (ip), vehicle: Klucel (hydroxypropylcellulose) (HPC)",96 % of control
same,T/C,"dose: 200.0 mg/kg/injection, schedule: Q04DX002 (ip), vehicle: Klucel (hydroxypropylcellulose) (HPC)",105 % of control
Cn1c(N)c(C(=O)CCc2ccccc2)c(=O)n(C)c1=O,T/C,[8],97 % of control
same,T/C,[9],97 % of control
same,T/C,"dose: 200.0 mg/kg/injection, schedule: Q01DX005 (ip), vehicle: saline with Tween-80",96 % of control
